Assay results from patent publication US6395732B1, “Pyrimidin-aminomethyl-pyridine derivatives, their preparation and their use in the control of helicobacter bacteria” (BYK Gulden Lomberg Chemische Fabrik GmbH, priority 1998, dated 2002).

Key:
Helicobacter pylori = experiment: Activity against Helicobacter pylori, agar method of Iwahi et al. (MIC 50); format: cell-based; settings: Columbia agar (Oxoid), growth period of 4 days, approximate values; for MIC50: Helicobacter pylori, 96 h, read-out: Appr. MIC 50
Text: The compounds of the formula I were investigated with respect to their activity against Helicobacter pylori following the method described by Tomoyuki Iwahi et al. (Antimicrobial Agents and Chemotherapy, 1991, 490-496) using Columbia agar (Oxoid) and a growth period of 4 days.

Row | SMILES | melting point | MIC50 (Helicobacter pylori) [µg/mL] | Appr. MIC 50 (Helicobacter pylori)
1 | Cc1nc(C)c(Cl)c(NCc2nccc(SCCCSc3ncc(-c4ccccc4)[nH]3)c2C)n1.Cl | 188 to 190 °C |  | 
2 | Cc1nc(C)c(Cl)c(NCc2nccc(N(C)CCN3CCc4ccccc4C3)c2Cl)n1 [Compound 1, (3-Chloro-4-{[2-(3,4-dihydro-1H-isoquinolin-2-yl)ethyl]methylamino}pyridin-2-ylmethyl)-(5-chloro-2,6-dimethylpyrimidin-4-yl)amine] | 81 to 93 °C |  | 
3 | Cc1nc(C)c(Cl)c(NCc2nccc(CNCCO)c2Cl)n1 [Compound 2, 2-({3-Chloro-2-[(5-chloro-2,6-dimethylpyrimidin-4-ylamino)methyl]pyridin-4-yl}methylamino)ethanol] | 162 to 165 °C |  | 
4 | Cc1nc(C)c(Cl)c(NCc2nccc(SCCOCCOCC(F)(F)F)c2C)n1.Cl [Compound 4, (5-Chloro-2,6-dimethylpyrimidin-4-yl)-(3-methyl-4-{2-[2-(2,2,2-trifluoroethoxy)ethoxy]ethylsulfanyl}pyridin-2-ylmethyl)amine hydrochloride] | 235 to 241 °C (dec.) | ≤ 0.1 | 
5 | Cc1nc(C)c(Cl)c(NCc2nccc(SCCCSCC3CN(C)C(=O)O3)c2C)n1 (stereo not shown) [Compound 5, 5-(3-{2-[(5-Chloro-2,6-dimethylpyrimidin-4-ylamino)methyl]-3-methylpyridin-4-yl-sulfanyl}propylsulfanylmethyl)-3-methyloxazolidin-2-one] | 121 °C | ≤ 0.1 | 
6 | Cc1nc(C)c(Cl)c(NCc2nccc(OCCCCSc3ncccn3)c2C)n1 [Compound 6] |  |  | ≦0.1 μg/ml
7 | Cc1nc(C)c(Cl)c(NCCCSc2ccnc(CNc3nc(C)nc(C)c3Cl)c2C)n1 [Compound 7, {4-[3-(5-Chloro-2,6-dimethylpyrimidin-4-ylamino)propylsulfanyl]-3-methylpyridin-2-yl-methyl}-(5-chloro-2,6-dimethylpyrimidin-4-yl)amine] |  | ≤ 0.1 | 
8 | Cc1c(SCCCSCc2ccncc2)ccnc1CNc1ncncc1Cl [Compound 8, (5-Chloropyrimidin-4-yl)-{3-methyl-4-[3-(pyridin-4-ylmethylsulfanyl)propylsulfanyl]-pyridin-2-ylmethyl}amine] | 148 to 149 °C | ≤ 0.1 | 
9 | Cc1c(SCCCSCCn2c([N+](=O)[O-])cnc2C)ccnc1CNc1ncncc1Cl [Compound 9, (5-Chloropyrimidin-4-yl)-(3-methyl-4-{3-[2-(2-methyl-5-nitroimidazol-1-yl)ethylsulfanyl]propylsulfanyl}-pyridin-2-ylmethyl)amine] | 119 to 121 °C | ≤ 0.1 | 
10 | Cc1nc(C)c(Cl)c(NCc2nccc(OCCCCN3CCN(Cc4ccncc4)CC3)c2C)n1 [Compound 11, (5-Chloro-2,6-dimethylpyrimidin-4-yl)-{3-methyl-4-[4-(4-pyridin-4-ylmethylpiperazin-1-yl)butoxy]pyridin-2-ylmethyl}amine] | 157 to 158 °C |  | 
11 | Cc1nc(C)c(Cl)c(NCc2nccc(OCCCCN3CCNCC3)c2C)n1 [Compound 14, (5-Chloro-2,6-dimethylpyrimidin-4-yl)-[3-methyl-4-(4-piperazin-1-ylbutoxy)pyridin-2-ylmethyl]amine] | 140 to 144 °C |  | 
12 | Cc1nc(C)c(Cl)c(NCc2nccc(OCCCCSCc3ccncc3)c2C)n1 [Compound 15, (5-Chloro-2,6-dimethylpyrimidin-4-yl)-{3-methyl-4-[4-(piridin-4-ylmethylsulfanyl)-butoxy]pyridin-2-ylmethyl}amine] |  |  | ≦0.1 μg/ml
13 | Cc1nc(C)c(Cl)c(NCc2nccc(OCCCCSCCn3c([N+](=O)[O-])cnc3C)c2C)n1 [Compound 16, (5-Chloro-2,6-dimethylpyrimidin-4-yl)-(3-methyl-4-{4-[2-(2-methyl-5-nitroimidazol-1-yl)-ethylsulfanyl]butoxy}pyridin-2-ylmethyl]amine] | 114 to 117 °C | ≤ 0.1 | 

Now from value to compound:

Row | melting point | MIC50 (Helicobacter pylori) [µg/mL] | Appr. MIC 50 (Helicobacter pylori) | SMILES
14 | 158 to 159 °C | ≤ 0.1 |  | Cc1nc(C)c(Cl)c(NCc2nccc(SCCCSc3ncccn3)c2C)n1 [Compound 10, (5-Chloro-2,6-dimethylpyrimidin-4-yl)-{3-methyl-4-[3-(pyrimidin-2-ylsulfanyl)propylsulfanyl]-pyridin-2-ylmethyl}amine]
15 |  |  | ≦0.1 μg/ml | Cc1nc(C)c(Cl)c(NCc2nccc(SCCCCN3CCN(Cc4ccncc4)CC3)c2C)n1 [Compound 12, (5-Chloro-2,6-dimethylpyrimidin-4-yl)-{3-methyl-4-[4-(4-pyridin-4-ylmethylpiparazin-1-yl)butylsulfanyl]pyridin-2-ylmethyl}amine]
16 | 143 to 145 °C | ≤ 0.1 |  | Cc1nc(C)c(Cl)c(NCc2nccc(SCCCCN3CCNCC3)c2C)n1 [Compound 17, (5-Chloro-2,6-dimethylpyrimidin-4-yl)-[3-methyl-4-(4-piperazin-1-ylbutylsulfanyl)pyridin-2-ylmethyl]amine]
17 | 123 to 126 °C | ≤ 0.1 |  | Cc1nc(C)c(Cl)c(NCc2nccc(N(C)CCCSCCn3c([N+](=O)[O-])cnc3C)c2Cl)n1 [Compound 18, (5-Chloro-2,6-dimethylpyrimidin-4-yl)-[3-chloro-4-(methyl-{3-[2-(2-methyl-5nitroimidazol-1-yl)ethylsulfanyl]propyl}amino)pyridin-2-ylmethyl]amine]
18 | 142 to 144 °C | ≤ 0.1 |  | Cc1nc(C)c(Cl)c(NCc2nccc(SCCCCSCCn3c([N+](=O)[O-])cnc3C)c2C)n1 [Compound 19, (5-Chloro-2,6-dimethylpyrimidin-4-yl)-(3-methyl-4-{4-[2-(2-methyl-5-nitroimidazol-1-yl)-ethylsulfanyl]butylsulfanyl}pyridin-2-ylmethyl)amine]
19 | 104 to 106 °C | ≤ 0.1 |  | Cc1nc(C)c(Cl)c(NCc2nccc(SCCCCSCc3ccncc3)c2C)n1 [Compound 20, (5-Chloro-2,6-dimethylpyrimidin-4-yl)-{3-methyl-4-[4-(pyridin-4-ylmethylsulfanyl)butylsulfanyl]pyridin-2-ylmethyl}amine]
20 | 92 to 94 °C | ≤ 0.1 |  | Cc1nc(C)c(Cl)c(NCc2nccc(SCCCSCC3CCCN(C)C3)c2C)n1 (stereo not shown) [Compound 22, (5-Chloro-2,6-dimethylpyrimidin-4-yl)-{3-methyl-4-[3-(1-methylpiperidin-3-ylmethylsulfanyl)propylsulfanyl]pyridin-2-ylmethyl}amine]
21 | 166 to 168 °C | ≤ 0.1 |  | Cc1nc(C)c(Cl)c(NCc2nccc(SCCCN3CCN(Cc4ccncc4)CC3)c2C)n1.Cl [Compound 23, (5-Chloro-2,6-dimethylpyrimidin-4-yl)-{3-methyl-4-[3-(4-pyridin-4-ylmethylpiperazin-1-yl)propylsulfanyl]pyridin-2-ylmethyl}amine hydrochloride]
22 | 124 to 125 °C | ≤ 0.1 |  | Cc1nc(C)c(Cl)c(NCc2nccc(SCCCSCc3ccncc3)c2C)n1 [Compound 24, (5-Chloro-2,6-dimethylpyrimidin-4-yl)-{3-methyl-4-[3-(pyridin-4-ylmethylsulfanyl)propylsulfanyl]pyridin-2-ylmethyl}amine]
23 | 145 to 147 °C | ≤ 0.1 |  | Cc1nc(C)c(Cl)c(NCc2nccc(SCCCSCCn3c([N+](=O)[O-])cnc3C)c2C)n1 [Compound 27, (5-Chloro-2,6-dimethylpyrimidin-4-yl)-(3-methyl-4-{3-[2-(2-methyl-5-nitroimidazol-1-yl)-ethylsulfanyl]propylsulfanyl}pyridin-2-ylmethyl)amine]
24 | 102 to 105 °C | ≤ 0.1 |  | Cc1nc(C)c(Cl)c(NCc2nccc(OCCOCCSCCn3c([N+](=O)[O-])cnc3C)c2C)n1 [Compound 28, (5-Chloro-2,6-dimethyl-pyrimidin-4-yl)-[3-methyl-4-(2-{2-[2-(2-methyl-5nitro-imidazol-1-yl)ethylsulfanyl]-ethoxy}-ethoxy)-pyridin-2-ylmethyl]-amine]
25 | 103 to 105 °C | ≤ 0.1 |  | Cc1nc(C)c(Cl)c(NCc2nccc(OCCOCCSCc3ccncc3)c2C)n1 [Compound 29, (5-Chloro-2,6-dimethyl-pyrimidin-4-yl)-(3-methyl-4-{2-[2-(pyridin-4-ylmethylsulfanyl)-ethoxy]-ethoxy}-pyridin-2-ylmethyl)-amine]
26 | 140 to 142 °C | ≤ 0.1 |  | Cc1nc(C)c(Cl)c(NCc2nccc(OCCSCc3ccncc3)c2C)n1 [Compound 30, (5-Chloro-2,6-dimethyl-pyrimidin-4-yl)-{3-methyl-4-[2-(pyridin-4-ylmethylsulfanyl)-ethoxy]-pyridin-2-ylmethyl}-amine]
27 | 134 to 137 °C | ≤ 0.1 |  | Cc1nc(C)c(Cl)c(NCc2nccc(SCCCSCCO)c2C)n1 [Compound 31, 2-(3-{2-[(5-Chloro-2,6-dimethyl-pyrimidin-4-ylamino)-methyl]-3-methyl-pyridin-4-ylsulfanyl}-propylsulfanyl)-ethanol]
28 | 139 to 144 °C | ≤ 0.1 |  | Cc1nc(C)c(Cl)c(NCc2nccc(OCCSCCn3c([N+](=O)[O-])cnc3C)c2C)n1 [Compound 32, (5-Chloro-2,6-dimethyl-pyrimidin-4-yl)-(3-methyl-4-{2-[2-(2-methyl-5-nitro-imidazol-1-yl)-ethylsulfanyl]-ethoxy}-pyridin-2-ylmethyl)-amine]
29 |  |  | ≦0.1 μg/ml | Cc1nc(C)c(Cl)c(NCc2nccc(SCCCSCCO[C@@H]3O[C@H](CO)[C@@H](O)[C@H](O)[C@H]3O)c2C)n1 [Compound 39, 2-(3-{2-[(5-Chloro-2,6-dimethyl-pyrimidin-4-ylamino)-methyl]-3-methyl-pyridin-4-ylsulfanyl}-propylsulfanyl)-β-D-glucopyranoside]
30 |  |  | ≦0.1 μg/ml | Cc1nc(C)c(Cl)c(NCc2nccc(OCCCCSCc3cccnc3)c2C)n1 [Compound 50]
